In article PMC12455078, “Synthesis, pharmacokinetic studies, and metabolite analysis of meridianin C in rats using a validated ultra high performance liquid chromatography-tandem mass spectrometry method” (Frontiers in Pharmacology, 2025):

Assays:
[1] = set-up: method as in Hasa et al., 2013; details: ref Hasa et al., 2013; cited from earlier work
[2] = Pharmacokinetics of MC and its metabolites in rat plasma after a single oral dose of MC (UHPLC-MS/MS); type: in vivo, Sprague Dawley rats; details: for Concentration in plasma samples relative to limit of quantification / AUC0–48h fold less than that of MC: single oral 100 mg/kg MC; for Tmax / half-life / Cmax / AUC(0-t): male, Sprague Dawley, single oral (intragastric) 100 mg/kg MC; for Tmax / half-life: n = 6; for Cmax: n = 6, metabolites quantified with the MC calibration curve; for AUC(0-t): n = 6, non-compartmental, metabolites quantified with the MC calibration curve, read-out: AUC0–48h
Method: Sprague Dawley rats (male, 220–250 g) were purchased from the SPF Biotechnology Co., Ltd. (Beijing, China). Animals were acclimated under controlled conditions (temperature 22 °C ± 2 °C, humidity 50%–60%, 12 h light cycle) with unlimited fodder and water access for 7 days. The animal experiments were approved by the Animal Experiment Ethics Review Committee of Jiangsu Vocational College of Medicine, Yancheng, China (LLSQ-2021-031106).
After fasting overnight, six rats were orally administered 100 mg/kg MC suspended in 0.5% carboxymethyl cellulose sodium solution (10.0 mg/mL). Blood samples (about 300 μL) were collected into heparinized polythene tubes from the suborbital vein at 0, 0.25, 0.5, 1, 2, 3, 4, 8, 12, 24, 36 and 48 h after administration. All samples were immediately centrifuged at 6,125 g for 5 min at 4 °C to acquire plasma. The plasma samples were preserved at − 80 °C until further analysis.
For the measurement of the concentrations of MC and its metabolites, three times volume of methanol, containing 20 µL IS (puerarin, 2,160.0 ng/mL), were added to 100 µL plasma samples to precipitate protein. After vortexing for 2 min, the mixtures were centrifuged at 6,125 g for 10 min at 4 °C. The obtained supernatants were transferred to fresh tubes and allowed to be dried at room temperature by a nitrogen blowing instrument. Then, the remaining residues were re-dissolved with 100 µL methanol–water (80:20, v/v). Following centrifugation at 16,173 g for 10 min, the supernatants were transferred and used for UHPLC/[…] assessment. The injection volume of each sample was 1 μL.
The UHPLC-MS system comprised of an Acquity UPLC system (Waters, Milford, United States) and Waters TQD tandem mass spectrometer equipped with an electrospray ionization (ESI) source. A Waters ACQUITY BEH C18 column (100 × 2.1 mm, 1.7 μm, Waters, Milford, United States) was used for the chromatography separation. The column temperature was set to 40 °C. The mobile phase was composed of 0.1% formic acid in water (A) and 0.1% formic acid in acetonitrile (B) with a fixed flow rate at 0.4 mL/min. A gradient elution program was used as follows: 0–1.5 min, 5%–20% B; 1.5–5 min, 20%–30% B; 5–7 min, 30%–95% B; 7–9 min, 95% B; 9–11 min, 95% B.
The MS tune parameters were set as mentioned below. The desolvation of the source temperatures was set at 500 °C. The flow rate of nebulization gas was 650 L/h. The capillary voltage was set at 2.8 kV in the positive ionization mode. The cone voltages were maintained at 35 V for all the tested ingredients. All data were obtained via the multiple reaction monitoring (MRM) ion mode. The range of m/z for the data collection was set at 100–1,500 Da. Transitions, cone voltage and a collision energy of MC and its metabolites were optimized (Table 2). The mass spectrum of MC and the chemical structures of its MS/MS fragments is shown in Figure 4, and The mass spectrum of puerarin and the chemical structures of its MS/MS fragments is shown in Figure 5. MassLynx™ software version 4.1 was used for data acquisition and TargetLynx™ (Waters, Milford, MA, United States) was applied to quantitation.
The concentrations of MC in the collected plasma samples were quantified by the established calibration curve based on peak areas of corresponding components. Owing to the lack of corresponding standards, calibration curves for the metabolites were not established. It has been reported that the concentrations of the metabolites could be quantified according to calibration curve of parent drug. This is possible due to the structural similarity of their parent nucleus ([Zhang et al., 2015]). Therefore, in this study, the concentrations of the metabolites were calculated via the calibration curve of MC. The main pharmacokinetic parameters of MC and its metabolites were calculated via a non-compartmental model with the pharmacokinetic software, DAS (ver. 2.0, Chinese Pharmacology Association, Shanghai, China). […]

[3] = Stability of MC in rat plasma QC samples under storage conditions; type: in vitro ADME; details: for Stability (re, %) 20 °C–25 °C/24 h / Stability (re, %) −20 °C/30 days / Stability (re, %) Freeze-thaw (3 cycles): n = 3; for Stability (re, %) Freeze-thaw (3 cycles): −20 °C to ambient temperature
Method: MC, accurately weighted, was firstly dissolved in methanol to acquire the standard stock solutions (250 μg/mL). A set of standard working solutions (25,000.0 ng/mL, 12,500.0 ng/mL, 2,500.0 ng/mL, 1,250.0 ng/mL, 625.0 ng/mL, 250.0 ng/mL, 125.0 ng/mL, 31.25 ng/mL) were obtained by diluting the stock solutions with methanol. An aliquot of 20 µL of these standard working solutions was then spiked into 1.5 mL polythene tubes and the solvent of methanol was evaporated at room temperature. Afterwards, the calibration standards (5,000.0 ng/mL, 2,500.0 ng/mL, 500.0 ng/mL, 250.0 ng/mL, 125.0 ng/mL, 50.0 ng/mL, 25.0 ng/mL, 6.25 ng/mL) were obtained by adding blank plasma (100 µL) into the tubes and fully mixing. The preparation method of quality control samples (QCs, 25.0 ng/mL, 1,250.0 ng/mL, 4,000.0 ng/mL) was identical with that of the calibration standards. All solutions were stored at 4 °C until further use.
All method validation procedures were performed strictly in accordance with the US FDA Guidance for Industry on Bioanalytical Method Validation ([FDA, 2018]). The assessment of selectivity was performed via comparing chromatograms among blank rat plasma (six different batches) and rat plasma spiked with MC and IS. The evaluation of linearity was carried out using weighted (1/x^2) least-squares analysis of two sets of calibration standards. Three different concentrations of Quality Check: QCs (n = 6) standards were used and detected on three different days to evaluate the intra-day and inter-day precision and the accuracy. Similarly, matrix effect and extraction recovery were assessed using three different concentrations of QCs (n = 6). The matrix effect was evaluated via calculating the peak area ratio of MC in post-spiked QCs and the solvent-substituted samples with same concentration. The extraction recovery was assessed via calculating the peak area ratio of MC in pre-spiked and post-spiked QCs. The stability of MC was examined using three concentrations of QCs (n = 3) under three different storage conditions, including freeze-thaw stability (three cycles from −20 °C to ambient temperature), short-term stability (storage at 20 °C–25 °C for 24 h), and long-term stability (storage at −20 °C for 30 days).
The stability was estimated by analyzing QCs (25.0, 1,250.0, and 4,000.0 ng/mL) after storing in three different conditions: three freeze-thaw cycles (−20 °C to ambient temperature), 20 °C–25 for 24 h, and - 20 °C for 30 days. As presented in Table 5, the deviations in the stabilities of MC ranged from - 8.5% to 13.5% under the three different storage conditions.

| Structure (SMILES) | Concentration in plasma samples relative to limit of quantification [2] | Tmax [2] | half-life [2] | Cmax [2] | AUC(0-t) [2] | AUC0–48h fold less than that of MC [2] | further results |
| --- | --- | --- | --- | --- | --- | --- | --- |
| CC[C@]12CCCN3CCc4c(n(c5ccccc45)[C@@](O)(C(=O)OC)C1)[C@@H]32 [vincamine] | – | – | – | – | – | – | Bioavailability [1]: low bioavailability |
| Nc1nccc(-c2cn(O)c3ccc(Br)cc23)n1 [M3] | lower than the limit of quantification | – | – | – | – | – | – |
| ONc1nccc(-c2cn(O)c3ccc(Br)cc23)n1 [M8] | lower than the limit of quantification | – | – | – | – | – | – |
| Nc1nccc(-c2cn(OS(=O)(=O)O)c3ccc(Br)cc23)n1 [M2] | – | 0.5 ± 0.27 h | 4.4 ± 2.7 h | 6.4 ± 2 µM | 20.9 ± 8.5 µM·h | 11.1 fold | – |
| Nc1nccc(-c2c[nH]c3ccc(Br)cc23)n1 [MC, Meridianin C] | – | 0.75 ± 0.27 h | 17.7 ± 14.1 h | 44.8 ± 7 µM | 232 ± 85.9 µM·h | – | Stability (re, %) 20 °C–25 °C/24 h ([3]; rat plasma, 25.0 ng/mL): 12.5%; Stability (re, %) −20 °C/30 days ([3]; rat plasma, 25.0 ng/mL): 10.6%; Stability (re, %) Freeze-thaw (3 cycles) ([3]; rat plasma, 25.0 ng/mL): 13.5%; Stability (re, %) 20 °C–25 °C/24 h ([3]; rat plasma, 1,250.0 ng/mL): 7.9%; Stability (re, %) −20 °C/30 days ([3]; rat plasma, 1,250.0 ng/mL): 5.2%; Stability (re, %) Freeze-thaw (3 cycles) ([3]; rat plasma, 1,250.0 ng/mL): 12.6%; Stability (re, %) 20 °C–25 °C/24 h ([3]; rat plasma, 4,000.0 ng/mL): −6.8%; Stability (re, %) −20 °C/30 days ([3]; rat plasma, 4,000.0 ng/mL): −8.5%; Stability (re, %) Freeze-thaw (3 cycles) ([3]; rat plasma, 4,000.0 ng/mL): 9.3%; Stability in rat plasma (in words) ([3]; three freeze-thaw cycles, 20 °C–25 °C for 24 h, −20 °C for 30 days): stable |
| O=S(=O)(O)ONc1nccc(-c2c[nH]c3ccc(Br)cc23)n1 [M11] | – | 0.88 ± 0.63 h | 3.4 ± 2.2 h | 1.6 ± 0.6 µM | 4 ± 1.1 µM·h | 58.7 fold | – |
